Source: patent US8765779B2, “Tricyclic derivatives and their pharmaceutical use and compositions” (Cephalon, Inc., priority 2009, dated 2014)
Where a name gives a salt, the structure may show the parent alone. Read-outs that look alike come from different tables or passages of the source.

Assays:
human 5-HT6 receptor = target: T1, human 5-HT6 receptor (Homo sapiens, UniProt P50406); test: Human 5-HT6 Receptor Binding Assay ([3H]LSD displacement, scintillation beads); details: membranes of CHO-K1 cells with recombinant human 5-HT6, 4 nM [3H]LSD, read-out: h5-HT6 (Ki)
T1 construct: host or cells: CHO-K1 cells, stably transfected; membranes prepared in house
T1 sequence (P50406 whole entry): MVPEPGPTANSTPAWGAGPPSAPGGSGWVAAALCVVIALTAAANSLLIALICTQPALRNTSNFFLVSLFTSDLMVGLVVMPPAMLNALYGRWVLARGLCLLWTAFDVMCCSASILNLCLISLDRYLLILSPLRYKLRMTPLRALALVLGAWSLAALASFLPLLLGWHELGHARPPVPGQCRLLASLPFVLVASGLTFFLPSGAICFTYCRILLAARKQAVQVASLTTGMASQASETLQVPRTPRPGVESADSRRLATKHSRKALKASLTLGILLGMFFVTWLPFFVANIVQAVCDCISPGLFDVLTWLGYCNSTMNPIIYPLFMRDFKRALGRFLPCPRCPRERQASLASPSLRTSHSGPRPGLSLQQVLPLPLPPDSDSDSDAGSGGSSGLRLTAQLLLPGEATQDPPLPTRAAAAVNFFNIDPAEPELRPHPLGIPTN

SMILES	Ki (human 5-HT6 receptor; Table 1, class symbols)	melting point	Ki (human 5-HT6 receptor; specific data)
CC12CCNCC1Oc1ccc(S(=O)(=O)c3ccccc3CO)cc12 (centres unmarked) [Example 97]	> 1000 nM	204 to 206 °C	
O=S(=O)(c1cccc(F)c1)c1ccc2c3c(oc2c1)C1(COC1)NCC3 [Example 48, 7-[(3-fluorophenyl)sulfonyl]-3,4-dihydro-2H-spiro[1-benzofuro[2,3-c]pyridine-1,3′-oxetane]]	< 500 nM	153 to 155 °C	
CC12CCNCC1Oc1ccc(S(=O)(=O)c3cccc(Cl)c3Cl)cc12 (centres unmarked) [Example 106]	< 500 nM	244 to 246 °C	
O=S(=O)(c1cc(F)cc(F)c1)c1ccc2c3c(oc2c1)C1(CCCOC1)NCC3 (racemic) [Example 24, 7-[(3,5-difluorophenyl)sulfonyl]-3,4,5′,6′-tetrahydro-2H,4′H-spiro[1-benzofuro[2,3-c]pyridine-1,3′-pyran]]	< 500 nM	85 to 95 °C	
CC12CCNCC1Oc1ccc(S(=O)(=O)c3ccc(F)cc3F)cc12 (centres unmarked) [Example 93]	500 to 1000 nM	215 to 216 °C	
CC12CCNCC1Oc1ccc(S(=O)(=O)c3ccccn3)cc12 (centres unmarked) [Example 91]	> 1000 nM	255 to 257 °C	
O=S(=O)(c1cccc(F)c1)c1ccc2c3c(oc2c1)C1(CCOCC1F)NCC3 (single isomer, unassigned) [Example 55, 3′-Fluoro-7-[(3-fluorophenyl)sulfonyl]-2′,3,3′,4,5′,6′-hexahydro-2H-spiro[1-benzofuro[2,3-c]pyridine-1,4′-pyran]]	< 500 nM	251 to 260 °C	
CC12CCNCC1Oc1ccc(S(=O)(=O)c3cccc(Cl)c3)cc12 (centres unmarked) [Example 100]	< 500 nM	160 to 162 °C	
CC12CCNCC1Oc1ccc(S(=O)(=O)c3cccc(Cl)c3Cl)cc12 (centres unmarked) [Example 101]	< 500 nM	210 to 212 °C	
COc1ccc(S(=O)(=O)c2ccc3c(c2)C2(C)CCNCC2O3)cc1F (centres unmarked) [Example 95]	< 500 nM	185 to 187 °C	
CC12CCNCC1Oc1ccc(S(=O)(=O)c3cccc(Cl)c3)cc12 (centres unmarked) [Example 103]	< 500 nM	218 to 220 °C	
CC12CCNCC1Oc1ccc(S(=O)(=O)c3cccc(Cl)c3)cc12 (centres unmarked) [Example 104]	> 1000 nM	216 to 218 °C	
CC12CCNCC1Oc1ccc(S(=O)(=O)c3ccc(F)cc3)cc12 (centres unmarked) [Example 92]	> 1000 nM	163 to 165 °C	
CC(C)Oc1cccc(S(=O)(=O)c2ccc3c(c2)C2(C)CCNCC2O3)c1 (centres unmarked) [Example 98]	< 500 nM	162 to 164 °C	
CC(=O)Nc1ccc(S(=O)(=O)c2ccc3c(c2)C2(C)CCNCC2O3)cc1 (centres unmarked) [Example 96]	> 1000 nM	212 to 214 °C	
CC12CCNCC1Oc1ccc(S(=O)(=O)c3cccc(Cl)c3Cl)cc12 (centres unmarked) [Example 105]	< 500 nM	242 to 244 °C	
CC12CCNCC1Oc1ccc(S(=O)(=O)c3ccccc3F)cc12 (centres unmarked) [Example 99, 6-[(2-fluorophenyl)sulfonyl]-4a-methyl-1,2,3,4,4a,9a-hexahydro[1]benzofuro[2,3-c]pyridine]	< 500 nM	260 to 262 °C	243 nM
CC12CCNCC1Oc1ccc(S(=O)(=O)c3cccc(F)c3)cc12 (centres unmarked) [Example 90]	< 500 nM	168 to 171 °C	
CC(C)Oc1cccc(S(=O)(=O)c2ccc3c4c(oc3c2)C2(CCOCC2)NCC4)c1 (as salt: HCl) [Example 44, 7-{[3-(propan-2-yloxy)phenyl]sulfonyl}-2′,3,3′,4,5′,6′-hexahydro-2H-spiro[1-benzofuro[2,3-c]pyridine-1,4′-pyran]]		250 °C (dec.)	
CC(C)Oc1cccc(S(=O)(=O)c2ccc3c(c2)OC2CNCCC32C)c1 (single isomer, unassigned) (as salt: HCl) [Example 21, 4a-methyl-7-{[3-(propan-2-yloxy)phenyl]sulfonyl}-1,2,3,4,4a,9a-hexahydro[1]benzofuro[2,3-c]pyridine]		183 to 184 °C	
CC(C)Oc1cccc(S(=O)(=O)c2ccc3c4c(oc3c2)C2(CCOC2)NCC4)c1 (single isomer, unassigned) (as salt: HCl) [Example 32, 7-{[3-(propan-2-yloxy)phenyl]sulfonyl}-3,4,4′,5′-tetrahydro-2H-spiro[1-benzofuro[2,3-c]pyridine-1,3′-furan]]		259 to 261 °C (dec.)	

Continued, in another order:

Ki (human 5-HT6 receptor; Table 1, class symbols)	melting point	SMILES	Ki (human 5-HT6 receptor; specific data)
< 500 nM	238 to 240 °C	O=S(=O)(c1cccc(OCc2ccccc2)c1)c1ccc2c(c1)OC1CNCCC21 (centres unmarked) [Example 74]	
< 500 nM	242 to 243 °C	O=S(=O)(c1ccc2c3c(oc2c1)CNCC3)c1cccc2nsnc12 [Example 83]	
< 500 nM	188 to 189 °C	O=S(=O)(c1ccc2c(c1)OC1CNCCC21)c1nc2ccccc2[nH]1 (centres unmarked) [Example 69]	
> 1000 nM	208 to 212 °C	C[C@@H]1CCCN1CCCOc1cc(F)cc(S(=O)(=O)c2ccc3c(c2)OC2CNCCC32)c1 (single isomer, unassigned) [Example 626]	
> 1000 nM	189 to 190 °C	O=S(=O)(c1ccc2c(c1)OC1CNCCC21)c1cccc2nonc12 (centres unmarked) [Example 72]	
< 500 nM	251 to 252 °C	CC(C)Oc1cccc(S(=O)(=O)c2ccc3c4c(oc3c2)CNCC4(C)C)c1 [Example 87]	
> 1000 nM	200 to 201 °C	Cc1ccc2nsnc2c1S(=O)(=O)c1ccc2c(c1)OC1CNCCC21 (centres unmarked) [Example 70]	
< 500 nM	197 to 204 °C	COc1cc2c(cc1S(=O)(=O)c1cccc(F)c1)C1CCNCC1O2 (centres unmarked) [Example 89]	
> 1000 nM	222 to 223 °C	COc1ccc2sc(S(=O)(=O)c3ccc4c(c3)OC3CNCCC43)nc2c1 (centres unmarked) [Example 71]	
< 500 nM	245 to 246 °C	O=S(=O)(c1ccc2c3c(oc2c1)CNCC3)c1cccc(Cl)c1F [Example 81]	
< 500 nM	195 to 196 °C	O=S(=O)(c1ccc2c(c1)OC1CNCCC21)c1cccc2nsnc12 (centres unmarked) [Example 67]	
< 500 nM	269 to 272 °C	O=S(=O)(c1ccc2c3c(oc2c1)C1(CCOC1)NCC3)c1cccc(F)c1F (single isomer, unassigned; enantiomer 1) [Example 473, 7-[(2,3-Difluorophenyl)sulfonyl]-3,4,4′,5-tetrahydro-2H-spiro[1-benzofuro[2,3-c]pyridine-1,3′-furan], enantiomer 1]	
< 500 nM	222 to 223 °C	O=S(=O)(c1ccc2c(c1)OC1CNCCC21)c1c(Cl)cccc1Cl (centres unmarked) [Example 64]	
< 500 nM	258 to 259 °C	Cc1c(Cl)cccc1S(=O)(=O)c1ccc2c3c(oc2c1)CNCC3 [Example 82]	
< 500 nM	279 to 281 °C	O=S(=O)(c1cccc(O)c1)c1ccc2c3c(oc2c1)CNCC3 [Example 627, 3-(1,2,3,4-Tetrahydro-benzo[4,5]furo[2,3-c]pyridine-7-sulfonyl)-phenol]	
< 500 nM	164 to 165 °C	Cn1ccc2c(S(=O)(=O)c3ccc4c(c3)OC3CNCCC43)cccc21 (centres unmarked) [Example 68]	
< 500 nM	258 to 259 °C	COc1ccc(Cl)cc1S(=O)(=O)c1ccc2c3c(oc2c1)CNCC3 [Example 80]	
